{
  "source": "ChEMBL document CHEMBL1147290",
  "about": "“Toxicants from mangrove plants, V. Isolation of the piscicide, 2-hydroxy-5-methoxy-3-undecyl-1,4 benzoquinone (5-O-methylembelin) from Aegiceras corniculatum” (J Nat Prod, 1989)",
  "key": {"Oreochromis niloticus": {"test_system": "Oreochromis niloticus", "assay": "Toxicity in Tilapia nilotica at 1 ppm within 75 mins", "assay_type": "organism-based", "details": "in vivo, 1.25 h"}, "Globisporangium ultimum": {"test_system": "Globisporangium ultimum", "assay": "Antifungal activity against Pythium ultimum at 1 mg", "assay_type": "functional", "details": "read-out: IZ"}},
  "data": [
    {"smiles": "CCCCCCCCCCCC1=C(O)C(=O)C=C(OC)C1=O", "note": "[5-O-METHYLEMBELIN]", "values": [
      {"measurement": "Activity", "setting": "Oreochromis niloticus", "value": "Toxic"},
      {"measurement": "zone of inhibition at 1000 µg/disc", "setting": "Globisporangium ultimum", "value": 8, "unit": "mm"}
    ]}
  ]
}
